Key:
Leishmania infantum [1] = experiment: Anti-leishmanial activity against promastigote stage of Leishmania infantum MHOM/MA/67/ITMAP-263 assessed as inhibition of parasite growth at 10 uM incubated for 72 hrs by resazurin-dye based assay; assay type: functional
[2] = Selectivity index, ratio of CC50 for cytotoxicity against human THP-1 cells to IC50 for anti-trypanosomal activity against trypomastigote blood stage of Trypanosoma brucei Lister 427; assay type: toxicity, cell-based; settings: read-out: Ratio CC50/IC50
[3] = Cytotoxicity against human HEK293 cells assessed as reduction in cell viability at 10 uM incubated for 24 hrs by Cell-Titer Glo luminescence assay; assay type: toxicity, cell-based; settings: read-out: INH
Leishmania infantum [4] = experiment: Anti-leishmanial activity against luciferase expressing intracellular amastigote stage of Leishmania infantum MHOM/MA/67/ITMAP-263 infected in human THP-1 cells assessed as inhibition of parasite growth incubated for 72 hrs by Steady-Glo luciferase assay; assay type: functional, organism-based; settings: MHOM/MA/67/ITMAP-263, THP-1, 72 h
Leishmania infantum [5] = experiment: Anti-leishmanial activity against luciferase expressing intracellular amastigote stage of Leishmania infantum MHOM/MA/67/ITMAP-263 infected in human THP-1 cells assessed as inhibition of parasite growth at 10 uM incubated for 72 hrs by Steady-Glo luciferase assay; assay type: functional; settings: MHOM/MA/67/ITMAP-263, THP-1
hERG (KCNH2) = hERG (KCNH2) (Homo sapiens, UniProt Q12809); experiment: Displacement of tracer from hERG extracted from membrane at 10 uM incubated for 2 hrs by fluorescence polarization assay; assay type: toxicity, cell membranes; settings: hERG membrane preparation, probe tracer (not named)
[6] = Cytotoxicity against human THP-1 cells assessed as reduction in cell viability incubated for 72 hrs by MTT assay; assay type: toxicity, cell-based
Leishmania infantum [7] = experiment: Anti-leishmanial activity against promastigote stage of Leishmania infantum MHOM/MA/67/ITMAP-263 assessed as inhibition of parasite growth incubated for 72 hrs by resazurin-dye based assay; assay type: functional, organism-based; settings: MHOM/MA/67/ITMAP-263, 72 h
Trypanosoma brucei = experiment: Anti-trypanosomal activity against trypomastigote blood stage of Trypanosoma brucei Lister 427 assessed as inhibition of parasite growth incubated for 72 hrs by resazurin-dye based assay; assay type: functional, organism-based; settings: Lister 427, 72 h
[8] = Selectivity index, ratio of CC50 for cytotoxicity against human THP-1 cells to IC50 for anti-leishmanial activity against promastigote stage of Leishmania infantum MHOM/MA/67/ITMAP-263; assay type: toxicity, cell-based; settings: read-out: Ratio CC50/IC50
[9] = Cytotoxicity against human A549 cells assessed as reduction in cell viability at 10 uM incubated for 24 hrs by Cell-Titer Glo luminescence assay; assay type: toxicity, cell-based; settings: read-out: INH
CYP3A4 = CYP3A4 (Homo sapiens, UniProt P08684); experiment: Inhibition of human CYP3A4 expressed in insect cell microsomes at 10 uM preincubated for 20 mins followed by NADP+ and substrate addition and measured after 10 mins by fluorescence based analysis; assay type: ADME, Microsome; settings: recombinant human CYP3A4 expressed in insect cell microsomes, time 30 min
[10] = Selectivity index, ratio of CC50 for cytotoxicity against human THP-1 cells to IC50 for anti-leishmanial activity against luciferase expressing intracellular amastigote stage of Leishmania infantum MHOM/MA/67/ITMAP-263 infected in human THP-1 cells; assay type: toxicity, cell-based; settings: read-out: Ratio CC50/IC50

hERG (KCNH2), sequence (Q12809 whole entry): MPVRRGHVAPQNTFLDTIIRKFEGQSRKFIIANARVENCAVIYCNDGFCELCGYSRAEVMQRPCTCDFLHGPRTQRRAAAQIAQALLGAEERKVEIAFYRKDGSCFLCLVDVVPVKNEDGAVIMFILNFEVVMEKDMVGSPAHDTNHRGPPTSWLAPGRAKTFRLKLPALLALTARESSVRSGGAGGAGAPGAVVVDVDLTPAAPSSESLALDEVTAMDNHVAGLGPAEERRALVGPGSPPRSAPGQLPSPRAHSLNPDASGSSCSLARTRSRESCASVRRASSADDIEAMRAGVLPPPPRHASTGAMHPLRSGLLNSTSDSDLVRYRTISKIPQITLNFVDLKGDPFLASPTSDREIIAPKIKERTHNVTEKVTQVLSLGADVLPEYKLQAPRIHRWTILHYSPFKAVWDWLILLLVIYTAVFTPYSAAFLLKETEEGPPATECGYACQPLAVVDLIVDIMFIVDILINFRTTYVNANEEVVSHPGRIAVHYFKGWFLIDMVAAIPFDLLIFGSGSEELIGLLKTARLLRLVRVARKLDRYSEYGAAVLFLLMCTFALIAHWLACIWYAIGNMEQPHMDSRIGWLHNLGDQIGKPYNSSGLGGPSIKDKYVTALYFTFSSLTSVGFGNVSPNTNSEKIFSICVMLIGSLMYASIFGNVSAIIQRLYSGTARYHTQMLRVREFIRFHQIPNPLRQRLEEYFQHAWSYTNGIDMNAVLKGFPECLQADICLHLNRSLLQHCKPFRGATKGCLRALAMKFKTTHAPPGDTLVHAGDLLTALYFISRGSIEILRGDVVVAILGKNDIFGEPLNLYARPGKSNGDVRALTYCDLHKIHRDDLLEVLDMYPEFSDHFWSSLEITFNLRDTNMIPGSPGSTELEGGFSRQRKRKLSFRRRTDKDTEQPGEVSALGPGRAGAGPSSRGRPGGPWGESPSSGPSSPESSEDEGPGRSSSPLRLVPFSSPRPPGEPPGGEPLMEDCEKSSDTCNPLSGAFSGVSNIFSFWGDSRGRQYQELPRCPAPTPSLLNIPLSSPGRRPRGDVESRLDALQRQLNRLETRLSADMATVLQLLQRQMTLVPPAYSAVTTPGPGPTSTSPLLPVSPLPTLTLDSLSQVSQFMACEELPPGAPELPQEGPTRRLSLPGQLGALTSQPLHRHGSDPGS
CYP3A4, sequence (P08684 whole entry): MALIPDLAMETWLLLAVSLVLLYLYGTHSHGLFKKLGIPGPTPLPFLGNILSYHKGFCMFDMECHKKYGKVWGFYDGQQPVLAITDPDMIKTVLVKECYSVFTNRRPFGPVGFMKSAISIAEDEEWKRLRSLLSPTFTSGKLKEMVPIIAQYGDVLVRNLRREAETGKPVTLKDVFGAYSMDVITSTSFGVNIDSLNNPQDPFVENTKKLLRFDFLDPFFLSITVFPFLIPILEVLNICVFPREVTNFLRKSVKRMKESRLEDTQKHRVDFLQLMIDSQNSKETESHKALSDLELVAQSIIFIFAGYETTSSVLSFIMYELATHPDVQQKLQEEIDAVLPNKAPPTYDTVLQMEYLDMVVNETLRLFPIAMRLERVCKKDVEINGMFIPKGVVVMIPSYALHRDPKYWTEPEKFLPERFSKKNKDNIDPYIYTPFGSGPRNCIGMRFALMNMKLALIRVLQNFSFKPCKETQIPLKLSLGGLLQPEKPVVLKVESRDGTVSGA

For COc1cccc(Nc2ncnc3c(N/N=C/c4ccc(OC)c(OC)c4)ncnc23)c1, the inhibition at 10 µM (Leishmania infantum [1]) was 98%, the selectivity ratio [2] was greater than 38 and the cytotoxicity at 24 h, 10 µM [3] was 18%. It also gave an IC50 (Leishmania infantum [4]) greater than 20 µM, an inhibition at 10 µM (Leishmania infantum [5]) of 34% and an inhibition at 2 h, 10 µM (hERG (KCNH2)) of 35%. It also gave a CC50 at 72 h [6] greater than 50 µM, an IC50 (Leishmania infantum [7]) of 1440 nM and an IC50 (Trypanosoma brucei) of 1320 nM. It also gave a selectivity ratio [8] greater than 35, a cytotoxicity at 24 h, 10 µM [9] of 40% and an inhibition at 10 min, 10 µM (CYP3A4) of 0%.
Work on COc1ccc(Nc2ncnc3c(N/N=C/c4ccc(OC)c(OC)c4)ncnc23)cc1 yielded an inhibition at 10 µM (Leishmania infantum [1]) of 98%, a selectivity ratio [2] greater than 41 and a cytotoxicity at 24 h, 10 µM [3] of 12%. The IC50 (Leishmania infantum [4]) was 3 µM, the selectivity ratio [10] was greater than 33 and the inhibition at 10 µM (Leishmania infantum [5]) was 85%. The inhibition at 2 h, 10 µM (hERG (KCNH2)) was 0%, the CC50 at 72 h [6] was greater than 100 µM and the IC50 (Leishmania infantum [7]) was 1930 nM. It also gave an IC50 (Trypanosoma brucei) of 2440 nM, a selectivity ratio [8] greater than 52 and a cytotoxicity at 24 h, 10 µM [9] of 23%. For the same molecule, the inhibition at 10 min, 10 µM (CYP3A4) was 0%.
In the case of COc1cccc(Nc2ncnc3c(N/N=C/c4ccc(O)c(O)c4)ncnc23)c1, the inhibition at 10 µM (Leishmania infantum [1]) is reported as 94%, the selectivity ratio [2] is reported as greater than 39 and the cytotoxicity at 24 h, 10 µM [3] is reported as 7%. It also gave an IC50 (Leishmania infantum [4]) of 8.51 µM, a selectivity ratio [10] of 6 and an inhibition at 10 µM (Leishmania infantum [5]) of 62%. It also gave an inhibition at 2 h, 10 µM (hERG (KCNH2)) of 18%, a CC50 at 72 h [6] greater than 50 µM and an IC50 (Leishmania infantum [7]) of 1670 nM. The IC50 (Trypanosoma brucei) was 1280 nM, the selectivity ratio [8] was 30 and the cytotoxicity at 24 h, 10 µM [9] was 22%. The inhibition at 10 min, 10 µM (CYP3A4) was 2%.
Work on COc1ccc(Nc2ncnc3c(N/N=C/c4ccc(O)c(O)c4)ncnc23)cc1 yielded an inhibition at 10 µM (Leishmania infantum [1]) of 98%, a selectivity ratio [2] greater than 182 and a cytotoxicity at 24 h, 10 µM [3] of 18%. It also gave an IC50 (Leishmania infantum [4]) of 3.13 µM, a selectivity ratio [10] greater than 32 and an inhibition at 10 µM (Leishmania infantum [5]) of 87%. For the same molecule, the inhibition at 2 h, 10 µM (hERG (KCNH2)) was 36%, the CC50 at 72 h [6] was greater than 100 µM and the IC50 (Leishmania infantum [7]) was 990 nM. It also gave an IC50 (Trypanosoma brucei) of 550 nM, a selectivity ratio [8] greater than 101 and a cytotoxicity at 24 h, 10 µM [9] of 39%. For the same molecule, the inhibition at 10 min, 10 µM (CYP3A4) was 2%.
Work on COc1ccc(Nc2ncnc3c(N/N=C/c4cc(O)c(O)c(O)c4)ncnc23)cc1 yielded an inhibition at 10 µM (Leishmania infantum [1]) of 94%, a selectivity ratio [2] greater than 185 and a cytotoxicity at 24 h, 10 µM [3] of 3%. For the same molecule, the IC50 (Leishmania infantum [4]) was greater than 20 µM, the inhibition at 10 µM (Leishmania infantum [5]) was 41% and the inhibition at 2 h, 10 µM (hERG (KCNH2)) was 48%. For the same molecule, the CC50 at 72 h [6] was greater than 100 µM, the IC50 (Leishmania infantum [7]) was 200 nM and the IC50 (Trypanosoma brucei) was 540 nM. The selectivity ratio [8] was greater than 502, the cytotoxicity at 24 h, 10 µM [9] was 12% and the inhibition at 10 min, 10 µM (CYP3A4) was 0%.
Molecule CCCCCCCCCCCCCCCCOP(=O)([O-])OCC[N+](C)(C)C [MILTEFOSINE] has an inhibition at 10 µM (Leishmania infantum [1]) of 97%, an IC50 (Leishmania infantum [4]) of 0.71 µM and a selectivity ratio [10] of 42. The inhibition at 10 µM (Leishmania infantum [5]) was 99%, the IC50 (Leishmania infantum [7]) was 11900 nM and the selectivity ratio [8] was 2.5.
